Experimental data as given in PubChem BioAssay AID179 (DTP/NCI, 2004).
The source made the active and inactive calls.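 How the source made its calls: active means compounds giving half or more protection of infected cells from virus-caused growth loss, again on retest; inactive means the rest.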

Tested on: CEM cells HIV-1 protection, formazan growth assay
Assay: NCI AIDS Antiviral Assay
Conditions: for IC50: measured here: growth of uninfected CEM cells
Procedure, shortened: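 Human CEM cells, uninfected and HIV-1-infected, exposed to five drug concentrations; growth measured by soluble formazan assay and scored as percent protection from infection, with protecting compounds retested.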

| SMILES | EC50 | IC50 | outcome |
| --- | --- | --- | --- |
| CC(C)OC(=O)c1ccc(CCC2=CC(=O)C(Br)=CC2=O)cc1 | > 200 µM | 8.71 µM | – |
| CCCCCOC(=O)C(=O)Nc1n[nH]nc1C(N)=O | > 200 µM | > 200 µM | – |
| C=C1C(=O)O[C@H]2C1C[C@@H](OC(C)=O)/C(C)=C/CC[C@@]1(C)O[C@H]21 (stereo not given in full) | > 200 µM | 1.2 µM | – |
| NC1CS(=O)(=O)CC1O (stereo not given) | > 200 µM | > 200 µM | – |
| CCCCCCCCCCCCCCCC(=O)Nc1ccn(C2CCC(COP(=O)(O)OC3CC(n4cc(C)c(=O)[nH]c4=O)OC3CO)O2)c(=O)n1 (stereo not given) | 0.0933 µM | 45.7 µM | – |
| CC(C)(C)O/C=C1/C(=O)OC2C[C@@H](O[Si](C)(C)C(C)(C)C)CC12 (stereo not given in full) | > 200 µM | 120 µM | – |
| CCN(CC)CSc1nc2ccccc2o1 | – | – | inactive |
| CNC(=O)CCCC=C(c1cc(Cl)c(OC)c(C(=O)NC)c1)c1cc(Cl)c(OC)c(C(=O)NC)c1 | > 200 µM | 38.9 µM | – |
| c1ccc(-c2cc(-c3cccs3)c(-c3cccs3)s2)cc1 | > 200 µM | 36.3 µM | – |
| Cc1ccc(C23c4ccccc4CCN2C(=O)C3N)cc1 (stereo not given) | > 603 µM | 117 µM | – |
| Cc1cc(=O)[nH]c(NN2C(Cl)C(=O)C2c2cccc(Cl)c2)n1 (stereo not given) | > 200 µM | 30.2 µM | – |
| Oc1c(C2=N[C@H]3CCCC[C@@H]3N2)ccc2ccccc12 | > 200 µM | > 200 µM | – |
| Cc1cc2c(cc1C)[n+](=O)cc(C(=O)C/C(=N/NC(=S)NN)C(=O)Nc1cccc(C(F)(F)F)c1)n2[O-] | > 126 µM | > 126 µM | – |
| O=C(/C(=C1\SS/C(=C(/C(=O)c2ccccc2)c2ccccc2)S1)c1ccccc1)c1ccccc1 | > 200 µM | > 200 µM | – |
| CCCCCCCCCCCCCCCCOC1N(C2CC(N=[N+]=[N-])C(CO)O2)C(=O)NC(=O)[C@]1(C)Br (stereo not given in full) | > 200 µM | 11 µM | – |
| COC1/C=C/OC2(C)Oc3c(C)c(O)c4c(O)c(cc(OCC(=O)N5CCC(O)(Cc6ccccc6)CC5)c4c3C2=O)NC(=O)/C(C)=C/C=CC(C)C(O)C(C)C(O)C(C)C(OC(C)=O)C1C (stereo not given) | > 112 µM | 30.9 µM | – |
| O=C1C2[C@@H](C(=O)N1c1ccc(Br)cc1)C13C(=CC2([N+](=O)[O-])[C@@H]2C(=O)N(c4ccc(Br)cc4)C(=O)[C@@H]21)c1ccccc1N3c1ccccc1 (stereo not given in full) | > 6.76 µM | > 6.76 µM | – |
| ClCCC[Si]12OCCN(CCO1)CCO2 | – | – | inactive |
| O=C(CCCN1CCC2(CC1)CC(=O)N(N1CCCCCC1)C2=O)c1ccc(F)cc1 | > 200 µM | > 200 µM | – |
| CC1=[N+]([O-])C2(CCCC2)N(O)C1(C)C | > 200 µM | > 200 µM | – |
| COc1ccc(S(=O)(=O)O)cc1C(=O)c1cc(S(=O)(=O)O)ccc1OC | > 575 µM | > 575 µM | – |

| SMILES | EC50 | IC50 | outcome |
| --- | --- | --- | --- |
| CCOc1c2c(cc3c1C(=O)c1c(OC)cccc1C3=O)C=C(OC)CC2 | > 25.1 µM | 13.5 µM | – |
| Nc1ccc(-c2ncc3cc(-c4cccc(-c5cc6cnc(-c7ccc(N)cc7)nc6c6ccccc56)c4)c4ccccc4c3n2)cc1 | > 200 µM | > 200 µM | – |
| c1ccc(CC(c2ccccc2)N2CCOCC2)cc1 (stereo not given) | – | – | inactive |
| CCOC(=O)c1c(NC(=O)c2ccc(Br)cc2)sc2c1CCCC2 | > 200 µM | > 200 µM | – |
| O=C(c1ccc(Cl)cc1Cl)N(C(=O)N1CCC(c2ccccc2)CC1)c1ccccc1 | > 200 µM | > 200 µM | – |
| CC1=NC=C(O)c2ccccc2O1 | > 40.7 µM | > 40.7 µM | – |
| O=c1[nH]c2c3ccccc3ccc2c2cc3c(cc12)OCO3 | – | – | inactive |
| c1ccc(C2OC23CCCCC3)cc1 (stereo not given) | > 200 µM | > 200 µM | – |
| COc1ccc(CC(NC(=O)NSc2ccccc2)C(=O)NC2C(CO)OC(n3cnc4c(N(C)C)ncnc43)C2O)cc1 (stereo not given) | > 200 µM | 87.1 µM | – |
| C=C1C[C@@H]2O[C@H]3[C@H]4[C@@H](C[C@@H](C)[C@@H](OC(C)=O)[C@H]42)[C@@H](C)CO[C@@]3(C)[C@H](OC(C)=O)C[C@H]1O | > 200 µM | 51.3 µM | – |
| CC1(c2nc3cc(Cl)c(Cl)cc3[nH]2)CCC(C(=O)O)C(C)(C)O1 (stereo not given) | > 200 µM | > 200 µM | – |
| Nc1nc(NC2C3CC4CC(C3)CC2C4)nc(-c2n[nH]c(=S)o2)n1 (stereo not given) | > 55 µM | 28.2 µM | – |
| CC(C)=C1CC(C)(C)N=C1CCN1CCOCC1 | > 200 µM | 2.95 µM | – |
| Cc1ccc(S(=O)(=O)n2c3c(c4ccccc42)CCN2C[C@H]([C@H](C)Br)CC[C@@H]32)cc1 | > 200 µM | 42.7 µM | – |
| CC(=O)/C(=N\Nc1ccc(Cl)cc1)C(C)=Nc1ccc(C)cc1 | > 200 µM | 30.2 µM | – |
| CN(C)C(=C1C(Br)=C(Br)C(Br)=C1Br)N(C)C | – | – | inactive |
| CC1=C(OC2OC(CO)C(O)C(O)C2O)C(=O)C[C@H]2C1=CC[C@@H]1[C@@]2(C)C(=O)C[C@]2(C)[C@@H]([C@@](C)(O)C(=O)CCC(C)(C)O)[C@H](O)C[C@@]12C (stereo not given in full) | > 200 µM | > 200 µM | – |
| C[C@H]1Oc2c3c(c4c(c2C(=O)[C@@H]1C)OCC=C4)OCC=C3 | > 200 µM | 89.1 µM | – |
| CNC(=O)CNC(=O)CCC(=O)OC | > 200 µM | > 200 µM | – |
| CC(=O)Oc1ccc2c(c1)c1c(=O)oc(C)nc1n2Cc1ccccc1 | > 200 µM | 66.1 µM | – |
| OCCCCOC(c1ccccc1)(c1ccccc1)c1ccccc1 | > 15.8 µM | > 15.8 µM | – |

| SMILES | EC50 | IC50 | outcome |
| --- | --- | --- | --- |
| O=C1NC2NC(=O)NC2N1 (stereo not given) | > 479 µM | > 479 µM | – |
| N#CNc1nc(N)c(-c2ccc(Cl)cc2)c(C(=O)Nc2ccc(Cl)c(Cl)c2)n1 | – | – | inactive |
| COc1cc2c(c(O)c1O)C(=O)C1CCC(=O)N1C2c1cccc2ccccc12 (stereo not given) | > 50.1 µM | 35.5 µM | – |
| CN1C(=O)NC2(C1=O)C(=O)N(C)C(=O)N2C (stereo not given) | > 1100 µM | > 1100 µM | – |
| Cc1cnc2c(ccc3c(C)c(C)c(C)nc32)c1C.Cc1cnc2c(ccc3c(C)c(C)c(C)nc32)c1C.O=C1OC(C(O)C[O-])C(O)=C1O.[Cu+] | > 25.1 µM | 1.29 µM | – |
| COc1ccc(C[C@H]2COC(=O)[C@@H]2Cc2cc(OC)c(OC)c(OC)c2)cc1OC | > 200 µM | 115 µM | – |
| CC(=O)c1nc(C#N)c(N)o1 | – | – | inactive |
| C=C1C(=O)C[C@@]23CCC[C@@]12CC(O)C3 (stereo not given in full) | – | – | inactive |
| FC1=C2C3CCC(C3)C2C1(F)F (stereo not given) | > 200 µM | > 200 µM | – |
| CC(=O)Oc1ccc(Nn2c3ccccc3c3ccccc32)c(C)c1 | > 200 µM | 11.7 µM | – |
| O=C1N=NC(=O)c2ccccc21 | > 200 µM | > 200 µM | – |
| O=C1C=C(C23CC4CC(CC(C4)C2)C3)Nc2ccccc2N1 | > 200 µM | – | – |
| Cc1ccc(N/N=C/C2=CC(C)(C)C(C#N)(C#N)C(O)=C2C#N)cc1 | > 200 µM | 6.61 µM | – |
| O=P(NC1CCCCC1)(NC1CCCCC1)NC1CCCCC1 | > 200 µM | > 200 µM | – |
| COC1=CCC=C(C[C@@H]2NCCc3cc(OC)c(OC)cc32)C1 | > 200 µM | > 200 µM | – |
| Cc1cn(CC2OCC(CO)O2)c(=O)[nH]c1=O (stereo not given) | > 1290 µM | 1100 µM | – |
| CCOC(=O)Cc1nc(Nc2ccc(F)c(Cl)c2)c2c3c(sc2n1)CCCC3 | > 12.3 µM | > 12.3 µM | – |
| Cc1cc(C)nc(NC(=S)Nc2ccc(Cl)cc2)c1 | > 100 µM | > 100 µM | – |
| O=C(O)CCCCCSCCCCCCSCCCCCC(=O)O | > 50.1 µM | > 50.1 µM | – |
| CC(=O)N1N(c2ccc([N+](=O)[O-])cc2)C(=O)C1(C)C | > 200 µM | > 200 µM | – |
